Structures can show the parent of a compound that is named as a salt.
Assay: drug loading and release from MeHA MN patches in PBS
Format: physicochemical
Description: The drug loading capabilities of MeHA MNs was investigated by using model drugs of different molecular weights, mainly fluorescein isothiocyanate (FITC), FITC-Dextran and doxorubicin hydrochloride (Dox). The innate ability of the MeHA MN arrays to absorb fluid is taken advantage of to load the drug molecules into the MN tips. All three drugs are dissolved in PBS which were then used to equilibrate MeHA MN patches. After 10 minutes of incubation with the drug solution, the MNs were left to dry in the fumehood (FIG. 14). The amount of drug encapsulated in the MN was determined by immersing the drug loaded MeHA in 1×PBS. By obtaining a 50 μL of the solution at various time points, the fluorescence intensity was measured to determine the drug release profile of the three different drug molecules.
Next, the release profiles of drugs from the MeHA MN patches were examined.

| released from the MN patches (MeHA MN patches, 1×PBS, within 30 minutes) [%] | Compound | loading into the MN tips through swelling (MeHA MN, 10 minutes incubation with drug solution in PBS) |
| --- | --- | --- |
|  | fluorescein isothiocyanate [FITC] | easily loaded |
| 50 | COc1cccc2c1C(=O)c1c(O)c3c(c(O)c1C2=O)C[C@@](O)(C(=O)CO)C[C@@H]3O[C@H]1C[C@H](N)[C@H](O)[C@H](C)O1 [Dox, doxorubicin hydrochloride] |  |

Reference: patent publication US20210346665A1, “CONDUCTIVE MICRONEEDLE PATCH FOR ACTIVE AGENT DELIVERY” (Singapore Health Services Pte Ltd, priority 2018, published 2021)
